Results: patent US7563862B2, “Neural regeneration peptides and methods for their use in treatment of brain damage” (Neuren Pharmaceuticals Limited, priority 2001, dated 2009)
Ends that are not written are not given here.

What was measured:
Assay type in all cases: cell-based, rat
cerebellar microexplants = assay: cerebellar microexplant neuronal migration assay
From the text: Another assay of this invention includes embodiments comprising cerebellar microexplants. Laminated cerebellar cortices of the two hemispheres were explanted from a P-4 Long Evans rat, cut into small pieces in GBSS with 0.65% D(+)glucose solution, and triturated by a 0.4 mm gauge needle and subsequently pressed through a 125 μm pore size sieve. The obtained microexplants were centrifuged (200×g) 2 times for a medium exchange into serum-free BSA-supplemented START V-medium (Biochrom). Finally, the microexplants were reconstituted in 500 μl STARTV-medium. For culturing, 38 μl of the cell suspension and 2 μl of migration-inducing factor (NRP-1) in 0.01 M sodium phosphate (pH 7.3) or phosphate alone (control) was incubated for 3 hours on a poly-D-lysine-coated cover slip in a 35 mm Petri dish under an atmosphere comprising 5% CO2 in air and 100% humidity at 34° C. Subsequently, 1 ml of STARTV-medium was added, and the cultures were evaluated after 2-3 days of culture (for example, see FIG. 2).
For immunohistochemistry and neuronal migration experiments, cerebellar microexplants were fixed after 2-3 days in culture after the following regime: microexplants were fixed by 2-minute, serial treatment with 0.4%; 1.2%; 3% paraformaldehyde/0.25% glutaraldehyde, respectively, followed by a 5 min incubation in 4% paraformaldehyde/0.25% glutaraldehyde in 0.1 M sodium phosphate (pH 7.4). MAP-2 was detected using the biotin-streptavidin/Cy3 detection system as described under the immunohistochemistry section of the thalamocortical OTCs.
Microexplants having a diameter between 100-120 μm were chosen for statistical analysis. For quantitative analysis of neuronal migration, an optical device having 10 consecutive rings of 100 μm diameter was applied over the microexplants. All neurons that had migrated after 48 h of culture were counted. Neurons located between circles 1 to 10 (0.1-1 mm) around the margin of the respective microexplant (see FIG. 2) were counted, and each circle was expressed as a percentage of total migrating cells. The unpaired Student's t-test was used for significance analysis. Results were given as mean values±standard deviation.

GFAP-positive astrocytes = assay: astrocyte proliferation (GFAP/BrdU) in thalamocortical OTC cell bridge
Experimental: FIG. 12 depicts the specificity of the proliferation induced by NRP-1 (SEQ ID NO: 2). We tested the proliferation status of astroglia by monitoring the expression patterns for GFAP and BrdU-incorporation. Thalamocortical OTCs were supplemented with 3 nM highly purified migration-inducing factor and fixed following 4 days in vitro. FIG. 12A (left panel) depicts non-proliferative GFAP-positive astrocytes (white arrows) accompanying the neuronal migration stream, with a subpopulation of astrocytes of proliferative character (FIG. 12B, right panel; white arrow heads). Approximately 30% of the astrocytes in close vicinity to the neuronal migration stream were of proliferative character. Bar: 50 μm.
We also investigated the effects of NRP-1 (SEQ ID NO:2) on the induction of proliferation within astrocytes in a qualitative way. […] Therefore we looked only at the newly formed cell bridge between the thalamic and cortical tissue 4 days after NRP administration.

embryonic striatal cells = assay: haptotactic migration assay, striatal cells; details: dishes coated with 150 ng, 48 hrs
From the text: To test the cell adhesion and neuronal migration inducing properties of the NRPs a haptotactic migration cell assay was developed (Lu et al.,2001). For this purpose Transwell® cell culture dishes (Costar) with fitting inserts having pores therein with a 12 μm pore size were used to cultivate striatal and neocortical cells. In general, a test agent was adhered to the surface of a culture dish and an insert having pores was placed in culture medium over but not in contact with the surface of the culture dish. Test cells were placed in the inserts, and any cells migrating through the pores and onto the surface of the culture dish reflected chemattractiveness by the test molecule. Under these conditions, the surface of the culture dish would, over time, release some NRP molecules into the culture medium. It can be appreciated that the concentration of “free” NRP would be greater nearer the surface of the culture dish than at distances farther away from the culture dish, thereby creating a gradient in NRP concentration. […] By counting the number and morphology of such migrant cells, effects of NRPs on neuronal migration and differentiation can be evaluated. […]
For seeding striatal cells, 1.5 ml of Neurobasal/B27 medium was put into the culture dishes and 0.5 ml of NeurobasaVB27 medium was put into the insert. The assay was ready for cell seeding. […]

Substance | concentration sufficient to induce significantly enhanced migration of neurons (cerebellar microexplants) [nM] | migrating cerebellar cells distributed between 400-500 μm from microexplant margin (cerebellar microexplants; 3 nM, 2 days of culture) [%] | migrating cerebellar cells distributed between 500-600 μm from microexplant margin (cerebellar microexplants; 3 nM, 2 days of culture) [%] | distance from the cerebellar margin where most of the cells were distributed (cerebellar microexplants; two days after administration) | distance from the margin of a significant population of cells (cerebellar microexplants; two days after administration) | astroglial division (GFAP-positive astrocytes) | astrocytes in close vicinity to the neuronal migration stream of proliferative character (GFAP-positive astrocytes; 3 nM, 4 days in vitro) | migration induction of striatal neurons (embryonic striatal cells)
NRP-1: rat 16 amino acid neural regeneration peptide purified from hippocampal OTC supernatant, Tyr Asp Pro Glu ... Cys His-NH2 (YDPEAASAPGSGNPCH-NH2) | 3 | 7.3±2.8 | 13.2±13.9 | 200-300 μm | 500-600 μm | does not induce astroglial division | Approximately 30% | –
KDPEARRAPGSLHPCLAAS-NH2 [NRP-2 segment KS, 19-mer fragment of NRP-2] | – | – | – | – | – | – | – | substantial migration induction
